Marks after values point to notes of the source that are not given here.
Assays:
[1] = pH 10
C. neoformans strain 52 = assay: Murine model of C. neoformans infection (proposed procedure)
anti-ClfA IgG antibody = assay: Adjuvant effect in vaccination with S. aureus ClfA (serum ELISA); assay type: in vivo, CD-1 female mice
Experimental: To evaluate the capacity of c-di-GMP to increase antibody production in the mouse (adaptive immune response), the cyclic dinucleotide was used as adjuvant for vaccination with S. aureus ClfA recombinant protein (a surface adhesion protein of S. aureus binding fibrinogen), as previously done for ClfA alone without adjuvant (Brouillette et al., 2002). Two groups of eight CD-1 female mice were vaccinated intramuscularly with 100 μl of saline containing 25 μg of ClfA. For one of the groups, the solution injected also contained 200 nmol of c-di-GMP. A volume of 50 ul was then injected into both quadriceps. This procedure was repeated two weeks after, for a second injection. Twelve days later, i.e. 26 days after the initial injections, blood samples were taken and incubated at 35° C. for an hour to allow coagulation, and then centrifuged at 13,000 g for 10 min at 4° C. Sera were harvested and kept at −20° C. until tested. The institutional ethics committee on animal experimentation of the Faculté des sciences of Université de Sherbrooke approved these experiments and were carried out following the guidelines of the Canadian Council on Animal Care.
Enzyme-linked immunosorbant assays (ELISA) were used to determine the presence of IgG antibodies against the ClfA antigen in the mouse serum, as previously described (Brouillette et al., 2002). Polystyrene Maxisorp 96-well plates (Nalge-Nunc International) were coated for 2 h with 50 μl of recombinant ClfA (domaine A) protein at a concentration of 10 μg/ml in carbonate/bicarbonate buffer at pH 9.6. Following saturation of the wells with a solution of powdered milk in PBS (5% w/v), overnight at 4° C., four-fold dilutions of sera (1/1000 to 1/64000) were added and incubated for 2 h at 35° C. and then overnight at 4° C. Biotinylated anti-mouse IgG (1/1000) was added and incubated for 2 h at 35° C. After 1 h of incubation with streptavidin-HRP (Amersham Pharmacia Biotech) diluted 1/500, 100 μl of Sure Blue TMB Peroxidase Substrate (KPL) was added. The enzyme reaction was stopped by the addition of 50 μl of 1N HCl after 6 min of incubation. Between each step, three washes with PBS-Tween 0.05% were carried out. The optical density (OD) was read on a plate reader (Bio-Tek Instruments) at 450 nm.
ELISA assays were carried out as for the total IgG assay but the secondary antibody was either mouse anti-IgG1-HRP or mouse anti-IgG2a-HRP (BD Pharmingen) and four-fold dilutions of sera form 1/250 to 1/16000 were assayed. Quantitation of mouse antibodies was achieved as for the total IgG assay but the development of coloration was allowed for 10 min. […] For the statistical analysis of ELISA results, the O.D. data for mice vaccinated with the c-di-GMP molecule as adjuvant were matched up to the corresponding data (isotype and dilution) where mice were injected with saline instead of c-di-GMP. One way analysis of variance (ANOVA) was used with the Bonferroni post-hoc test to account for multiple comparisons (Graphpad InStat software, version 3.06).

lung leukocytes = assay: Lung leukocyte accumulation in Klebsiella-infected mice (lung digest, flow cytometry); assay type: in vivo, Balb/c mice
C. albicans = assay: Candidiasis of oral mucosal surfaces and intestinal tract in mice (proposed); assay type: in vivo, Candida albicans; conditions: C. albicans in drinking water
Source text: Dissemination to livers occurs and is 100% on days 5 to 15. The median kidney or liver CFU were 2 or 3 log10 CFU, respectively, on day 15; despite this, mortality was low through 21 days of infection.

S. aureus Newbould 305 = assay: Mouse model of S. aureus-induced mastitis, prophylactic pre-treatment; assay type: in vivo; conditions: for reduction of the mean bacterial CFU in tissues compared to untreated control: lactating CD-1 mice, 10 h infection
Experimental: The well-characterized mouse model of S. aureus-induced mastitis (see Brouillette et al., 2005 for review) was used to evaluate the capacity of c-di-GMP to act as a prophylactic agent. S. aureus is a Gram-positive bacterial pathogen. The protocol used here is similar to that described in a previous study (Brouillette et al., 2005), except that the c-di-GMP molecule was administered before infection of mammary glands, instead of after, in order to evaluate its prophylactic capacity. […] For inoculation, 100 cfu of S. aureus Newbould 305 (ATCC 29740) were injected in each gland and the colonization allowed for 10 h. Raw bacterial cfu counts obtained after plating serial logarithmic dilutions of mammary gland homogenates were transformed in base-10 logarithm values. The experiment was repeated and data combined for a total of 9 mice (18 glands) per group. Since values passed the normality test, bacterial counts were analyzed for statistical significance using the One-way analysis of variance test combined with the Tukey post test (GraphPad Instat, version 3.06). The institutional ethics committee on animal experimentation of the Faculté des sciences of Université de Sherbrooke approved these experiments and were carried out following the guidelines of the Canadian Council on Animal Care.

[2] = serum dilution of 1/1000, FIG. 7B
[3] = 200 nmol intramammary 12 h and 6 h prior to challenge, P<0.001

Q: Which results are given for Nc1nc(=O)c2ncn([C@@H]3OC4COP(=O)(O)O[C@H]5[C@@H](O)[C@H](n6cnc7c(=O)nc(N)[nH]c76)O[C@@H]5COP(=O)(O)OC4C3O)c2[nH]1 (some centres unmarked) [c-di-GMP, Bis(3′→5′)-cyclic diguanylic acid]?
A: stability at physiological conditions [1]: stable; pathogen burden compared with controls (C. neoformans strain 52; C57BL/6 mice): significantly reduced; pulmonary eosinophilia (C. neoformans strain 52; C57BL/6 mice): significantly reduced; IFN production and total numbers of CD4^+/IFN-γ^+ cells (C. neoformans strain 52; lung, C57BL/6 mice): increased; survival (C. neoformans strain 52; oral, intranasal, i.p., i.v., s.q., or i.m. administration): increase survival; ELISA optical density, IgG1 and IgG2a isotypes (anti-ClfA IgG antibody; serum dilution 1/16000, c-di-GMP treated group): around 0.5; ELISA optical density, total IgG (anti-ClfA IgG antibody; serum dilution 1/64000, c-di-GMP treated group): around 0.5; increase of IgG1 (optical density ratio c-di-GMP/saline) (anti-ClfA IgG antibody; [2]): 3.6 times; increase of IgG2a (optical density ratio c-di-GMP/saline) (anti-ClfA IgG antibody; [2]): 208.9 times; increase of total IgG (optical density ratio c-di-GMP/saline) (anti-ClfA IgG antibody; [2]): 7.7 times; anti-ClfA IgG antibody titers compared with ClfA alone (anti-ClfA IgG antibody; two i.m. injections, 200 nmol c-di-GMP + 25 μg ClfA, serum day 26, P<0.001): significantly higher; increase in the number of neutrophils in the lungs of infected mice vs control-pretreated (lung leukocytes; 48 hr post infection, p<0.01): 3 fold; total number of lung leukocytes vs control-pretreated (lung leukocytes; 48 hr post infection, p<0.01): significant increase; Total number lung cells (lung leukocytes; i.n. pretreatment 48 and 24 hr prior, lung digests 48 hrs after K. pneumoniae (kp), uninfected 2.7 × 10^7): 4.67 × 10^7*; trafficking of myeloid or plasmacytoid DC to the lung in response to bacterial challenge (lung leukocytes; i.n., data not shown): did not alter; αβTcr^+, CD69^+ (lung leukocytes; lung digests 48 hrs after kp, uninfected 0.33 × 10^5): 3.7 × 10^5*; DX5^+, CD69^+ (lung leukocytes; lung digests 48 hrs after kp, uninfected 0.78 × 10^5): 5.98 × 10^5**; PMN (lung leukocytes; lung digests 48 hrs after kp, uninfected 0.8 × 10^6): 22 × 10^6**; DX5^+ (NK) (lung leukocytes; lung digests 48 hrs after kp, uninfected 1.3 × 10^6): 3.8 × 10^6; DX5^+, αβγδTcr^+(NK T^+) (lung leukocytes; lung digests 48 hrs after kp, uninfected 1.6 × 10^5): 6.8 × 10^5*; Mono/Macrophage (lung leukocytes; lung digests 48 hrs after kp, uninfected 2.3 × 10^7): 1.9 × 10^7; αβTcr^+ (lung leukocytes; lung digests 48 hrs after kp, uninfected 2.6 × 10^6): 5.5 × 10^6**; mucosal infection and dissemination compared to untreated controls (C. albicans): reduce mucosal infection; reduction of the mean bacterial CFU in tissues compared to untreated control (S. aureus Newbould 305; 50 nmol intramammary 12 h and 6 h prior to challenge, P<0.05): 1.5 log; reduction in CFUs in tissues (S. aureus Newbould 305; [3]): 10,000 fold; reduction of the mean bacterial CFU in tissues compared to untreated control (S. aureus Newbould 305; [3]): 3.8 log
